Laboratory results reported in patent US8404680B2, “N-[3-(5-amino-3,3a,7,7a-tetrahydro-1H-2,4-dioxa-6-aza-inden-7-yl)-phenyl]-amides as BACE1 and/or BACE2 inhibitors” (Hoffmann-La Roche Inc., priority 2011, dated 2013).

Columns and labels:
BACE1 = target: T1, BACE1 (Homo sapiens, UniProt P56817); test: Cellular Aβ-lowering assay; type: cell-based; conditions: human HEK293 cells stably expressing human APP wt (APP695); Aβ40 in supernatant by ELISA after 18-20 hrs
T1 construct: Human HEK293 cells which are stably transfected with a vector expressing a cDNA of the human APP wt gene (APP695); endogenous in cells; host or cells: HEK293 (human), stably transfected with human APP695 wt
Description: Cellular Aβ-Lowering Assay:
Human HEK293 cells which are stably transfected with a vector expressing a cDNA of the human APP wt gene (APP695) were used to assess the potency of the compounds in a cellular assay. The cells were seeded in 96-well microtiter plates in cell culture medium (Iscove, plus 10% (v/v) fetal bovine serum, glutamine, penicillin/streptomycin) to about 80% confluence and the compounds were added at a 10× concentration in 1/10 volume of medium without FCS containing 8% DMSO (final concentration of DMSO was kept at 0.8% v/v). After 18-20 hrs incubation at 37° C. and 5% CO2 in a humidified incubator the culture supernatant was harvested for the determination of Aβ40 concentrations. 96well ELISA plates (e.g., Nunc MaxiSorb) were coated with monoclonal antibody which specifically recognize the C-terminal end of Aβ40 (Brockhaus et al., NeuroReport 9, 1481-1486; 1998). After blocking of non-specific binding sites with e.g. 1% BSA and washing, the culture supernatants were added in suitable dilutions together with a horseradish peroxidase-coupled Aβ detection antibody (e.g., antibody 4G8, Senetek, Md. Heights, Mo.) and incubated for 5 to 7 hrs. Subsequently the wells of the microtiter plate were washed extensively with Tris-buffered saline containing 0.05% Tween 20 and the assay was developed with tetramethylbenzidine/H2O2 in citric acid buffer. After stopping the reaction with one volume 1 NH2SO4 the reaction was measured in an ELISA reader at 450 nm wavelength. The concentrations of Aβ in the culture supernatants were calculated from a standard curve obtained with known amounts of pure Aβ peptide.

BACE2 = target: T2, BACE2 (Rattus norvegicus, UniProt Q6IE75); test: Assay for BACE inhibition by measuring cellular TMEM27 cleavage; type: cell-based; conditions: INS-TMEM27 (INS1e-derived rat cell line, inducible hTMEM27); shed TMEM27 in medium by ELISA
T2 construct: endogenous cellular BACE2 in the Ins1e rat cell line; endogenous in cells; host or cells: INS-TMEM27 (INS1e-derived rat cell line, TetOn-inducible full-length hTMEM27)
T2 sequence (Q6IE75 63-514): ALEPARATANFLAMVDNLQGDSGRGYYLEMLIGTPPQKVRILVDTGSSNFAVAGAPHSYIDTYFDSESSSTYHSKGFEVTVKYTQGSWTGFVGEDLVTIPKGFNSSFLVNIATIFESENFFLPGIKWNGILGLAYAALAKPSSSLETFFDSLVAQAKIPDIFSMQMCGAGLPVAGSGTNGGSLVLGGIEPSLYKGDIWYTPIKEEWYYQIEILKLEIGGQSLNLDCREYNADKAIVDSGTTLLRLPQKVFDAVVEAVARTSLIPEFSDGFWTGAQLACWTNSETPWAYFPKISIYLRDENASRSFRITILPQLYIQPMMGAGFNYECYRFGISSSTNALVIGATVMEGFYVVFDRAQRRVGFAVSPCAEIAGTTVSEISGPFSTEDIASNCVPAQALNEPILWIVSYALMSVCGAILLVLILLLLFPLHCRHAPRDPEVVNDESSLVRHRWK
Excerpt: Assay for BACE Inhibition by Measuring Cellular TMEM27 Cleavage:
The assay uses the principle of inhibition of human TMEM27 cleavage by endogenous cellular BACE2 in the Ins1e rat cell line and shedding from the cell surface into the culture medium, followed by detection in an ELISA assay Inhibition of BACE2 prevents the cleavage and shedding in a dose-dependent manner.
The stable cell line “INS-TMEM27” represents an INS1e-derived cell line with inducible expression (using the TetOn system) of full-length hTMEM27 in a doxycycline-dependent manner. The cells are cultured throughout the experiment in RPMI1640+ Glutamax (Invitrogen) Penicillin/Streptomycin, 10% Fetal bovine serum, […], […], 100 micrograms/ml G418 and 100 microgram/ml hygromycin and are grown inadherent culture at 37° C. in a standard CO2 cell culture incubator.
INS-TMEM27 cells are seeded in 96-well plates. After 2 days in culture, BACE2 inhibitor is added in a range of concentrations as required by the assay and after a further two hours, doxycycline is added to a final concentration of 500 ng/ml. The cells are incubated for a further 46 hours and the supernatant harvested for detection of shed TMEM27.
An ELISA assay (using a pair of mouse anti-human-TMEM27 antibodies, raised against the extracellular domain of TMEM27) is used for detection of TMEM27 in the culture medium. An EC50 for BACE2 inhibition is calculated using the ELISA readout for each inhibitor concentration with standard curve-fitting software such as XLFit for the Excel spreadsheet program.

T1 sequence (P56817 46-501): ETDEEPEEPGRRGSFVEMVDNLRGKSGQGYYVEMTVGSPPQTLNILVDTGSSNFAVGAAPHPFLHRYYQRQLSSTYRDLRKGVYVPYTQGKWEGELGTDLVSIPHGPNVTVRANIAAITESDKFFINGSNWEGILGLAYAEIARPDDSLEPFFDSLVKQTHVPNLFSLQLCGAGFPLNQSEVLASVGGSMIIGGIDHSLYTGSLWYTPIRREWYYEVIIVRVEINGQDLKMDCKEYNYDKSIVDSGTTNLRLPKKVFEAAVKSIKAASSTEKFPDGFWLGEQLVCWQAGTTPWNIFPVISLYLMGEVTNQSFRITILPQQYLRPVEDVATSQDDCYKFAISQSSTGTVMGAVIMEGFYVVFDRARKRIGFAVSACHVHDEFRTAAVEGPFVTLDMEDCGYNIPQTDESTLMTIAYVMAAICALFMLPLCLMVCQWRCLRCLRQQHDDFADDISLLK

Row | IC50 (BACE1) [nM] | IC50 (BACE2) [nM] | SMILES
1 | 6 | 556 | C[C@]1(c2cc(NC(=O)c3ccc(OCC(F)(F)F)cn3)ccc2F)N=C(N)O[C@@H]2COC[C@@H]21 [Example 6, 5-(2,2,2-Trifluoro-ethoxy)-pyridine-2-carboxylic acid [3-((3aS,7S,7aS)-5-amino-7-methyl-3,3a,7,7a-tetrahydro-4H-2,4-dioxa-6-aza-inden-7-yl)-4-fluoro-phenyl]-amide]
2 | 1.8 | 209 | C[C@]1(c2cc(NC(=O)c3cnc(OCC(F)(F)F)cn3)ccc2F)N=C(N)O[C@@H]2COC[C@@H]21 [Example 8, 5-(2,2,2-Trifluoro-ethoxy)-pyrazine-2-carboxylic acid [3-((3aS,7S,7aS)-5-amino-7-methyl-3,3a,7,7a-tetrahydro-1H-2,4-dioxa-6-aza-inden-7-yl)-4-fluoro-phenyl]-amide]
